Entries after “also recorded” stand apart in the source; their conditions may differ.
Key:
[1] = system: Any Pathogen (Haemophilus parainfluenza, Haemophilus influenza, Pseudomonas aeruginosa, Moraxella, Streptococcus pneumonia) in sputum; assay: Phase II study in COPD patients: sputum microbiology, any pathogen; assay type: in vivo; settings: for patients colonized, n (%) / patients with a positive culture, n (%): Any Pathogen; for patients colonized, n (%): all patients in sputum analysis; for patients with a positive culture, n (%): only subjects with a pathogen at baseline; for percent of patients who cleared colonization: patients with culture positive sputum at Baseline
Experimental: A double-blinded, randomized, placebo-controlled, non-confirmatory, and multi-center, fixed-dose study of Compound A in COPD patients was conducted to assess efficacy, safety, tolerability, pharmacokinetics (PK), and pharmacodynamics (PD). Patients were randomized and stratified by smoking status (former vs current smokers). The double-blind placebo-controlled treatment period was 28 days (Day 1 to Day 28) and included visits on Days 1, 14 and 28. Eligible patients were randomized in a 2:1 ratio to receive 300 mg b.i.d. of Compound A or matching placebo for 28 consecutive days. Of note, the first 4 patients enrolled randomized in this study received 450 mg b.i.d. of Compound A or placebo, prior to an amendment reducing the dose and thereafter the dose was reduced to 300 mg b.i.d. of Compound A. The single-blind placebo-controlled follow-up period was 28 days. The follow-up period included a visit on Day 29 for key primary and secondary objective efficacy assessments, weekly follow-up contact via telephone, and an End-of-Study (EOS) visit on Day 56. Number of patients (planned and analyzed): Ninety two (92) patients were randomized into the study. The majority of the patients (N=78, 84.8%) completed the study as planned. A total of 14 patients discontinued the study (N=2 from placebo group and N=12 from Compound A group). The reasons for discontinuations include adverse events, protocol deviations (failure to meet inclusion/exclusion at Baseline), patient decision, abnormal laboratory values (positive drug screen) and administrative problems (patient unable to return to site for visits).
(§1) Spontaneous sputum was collected from patients and used to quantify colony forming units (CFUs) as a potential efficacy marker. The collected sputum samples were cultured for the following specific bacteria: Haemophilus parainfluenza, Haemophilus influenza, Pseudomonas aeruginosa, Moraxella, and Streptococcus pneumonia. In the event of bacterial growth for one or more of the above five pathogens, then the test result was reported, including the quantitative growth. In order to be included in the sputum analysis, a patient must have provided a sufficient sputum sample at baseline and at least one other visit (Day 14, Day 29 or EOS).
(§2) A decrease in airway bacterial colonization as detected in the sputum is considered improvement. In Table 4, the frequency (n, %) of patients was reported by treatment with Compound A and type of bacteria. Within each treatment group, the percentage was calculated as number of patients who were colonized with bacteria divided with total number of patients who produced a sputum sample at that time point.
For the treatment effect a summary table, the frequency (n, %) of patients with a positive culture was reported by each treatment. Only patients with a positive culture at baseline are included in this analysis. Percentage was calculated as number of patients who are colonized (i.e., have at least one culture resulted) divided with total number of patients who produced a sputum sample at each visit, by treatment.

OATP1B3 = OATP1B3 (Homo sapiens (Human), UniProt Q9NPD5); assay: in vitro inhibition of OATP1B3; assay type: in vitro ADME
CYP3A4/5 = assay: Time dependent inhibition and induction of CYP3A4/5; assay type: in vitro ADME
[2] = system: Pseudomonas aeruginosa small colony variant; assay type: in vivo; settings: Baseline
Experimental: (§3) Patients were randomized and stratified by smoking status (former vs current smokers). The double-blind placebo-controlled treatment period was 28 days (Day 1 to Day 28) and included visits on Days 1, 14 and 28. Eligible patients were randomized in a 2:1 ratio to receive 300 mg b.i.d. of Compound A or matching placebo for 28 consecutive days. Of note, the first 4 patients enrolled randomized in this study received 450 mg b.i.d. of Compound A or placebo, prior to an amendment reducing the dose and thereafter the dose was reduced to 300 mg b.i.d. of Compound A. The single-blind placebo-controlled follow-up period was 28 days. The follow-up period included a visit on Day 29 for key primary and secondary objective efficacy assessments, weekly follow-up contact via telephone, and an End-of-Study (EOS) visit on Day 56.
Spontaneous sputum was collected from patients and used to quantify colony forming units (CFUs) as a potential efficacy marker. […] In the event of bacterial growth for one or more of the above five pathogens, then the test result was reported, including the quantitative growth. […]
A decrease in airway bacterial colonization as detected in the sputum is considered improvement. […] Within each treatment group, the percentage was calculated as number of patients who were colonized with bacteria divided with total number of patients who produced a sputum sample at that time point.

OAT1/3 = assay: in vitro inhibition of OAT1/3; assay type: in vitro ADME
UGT2B7 = UGT2B7 (Homo sapiens (Human), UniProt P16662); assay: in vitro inhibition of UGT2B7; assay type: in vitro ADME
COPD patients = assay: COPD PoC study (study 2): lung function (LCI, FEV1, spirometry); assay type: in vivo, human
Experimental: as §3

in vivo = settings: monkey
Haemophilus influenzae = assay: Phase II study in COPD patients: sputum microbiology, Haemophilus influenzae; assay type: in vivo
Experimental: as §3, §1, §2

patients with CF = assay: Clinical study in cystic fibrosis patients: lung function (FEV1); assay type: in vivo, human; settings: two weeks of treatment, listed as Compound A
wild type CTFR channel = wild type CTFR channel (Homo sapiens (Human), UniProt P13569); assay: in vitro EC50 against the wild type CFTR channel; assay type: cell-based
Description: There is no preclinical in vivo model of CFTR potentiation.

wild type CTFR channel, sequence (P13569 whole entry): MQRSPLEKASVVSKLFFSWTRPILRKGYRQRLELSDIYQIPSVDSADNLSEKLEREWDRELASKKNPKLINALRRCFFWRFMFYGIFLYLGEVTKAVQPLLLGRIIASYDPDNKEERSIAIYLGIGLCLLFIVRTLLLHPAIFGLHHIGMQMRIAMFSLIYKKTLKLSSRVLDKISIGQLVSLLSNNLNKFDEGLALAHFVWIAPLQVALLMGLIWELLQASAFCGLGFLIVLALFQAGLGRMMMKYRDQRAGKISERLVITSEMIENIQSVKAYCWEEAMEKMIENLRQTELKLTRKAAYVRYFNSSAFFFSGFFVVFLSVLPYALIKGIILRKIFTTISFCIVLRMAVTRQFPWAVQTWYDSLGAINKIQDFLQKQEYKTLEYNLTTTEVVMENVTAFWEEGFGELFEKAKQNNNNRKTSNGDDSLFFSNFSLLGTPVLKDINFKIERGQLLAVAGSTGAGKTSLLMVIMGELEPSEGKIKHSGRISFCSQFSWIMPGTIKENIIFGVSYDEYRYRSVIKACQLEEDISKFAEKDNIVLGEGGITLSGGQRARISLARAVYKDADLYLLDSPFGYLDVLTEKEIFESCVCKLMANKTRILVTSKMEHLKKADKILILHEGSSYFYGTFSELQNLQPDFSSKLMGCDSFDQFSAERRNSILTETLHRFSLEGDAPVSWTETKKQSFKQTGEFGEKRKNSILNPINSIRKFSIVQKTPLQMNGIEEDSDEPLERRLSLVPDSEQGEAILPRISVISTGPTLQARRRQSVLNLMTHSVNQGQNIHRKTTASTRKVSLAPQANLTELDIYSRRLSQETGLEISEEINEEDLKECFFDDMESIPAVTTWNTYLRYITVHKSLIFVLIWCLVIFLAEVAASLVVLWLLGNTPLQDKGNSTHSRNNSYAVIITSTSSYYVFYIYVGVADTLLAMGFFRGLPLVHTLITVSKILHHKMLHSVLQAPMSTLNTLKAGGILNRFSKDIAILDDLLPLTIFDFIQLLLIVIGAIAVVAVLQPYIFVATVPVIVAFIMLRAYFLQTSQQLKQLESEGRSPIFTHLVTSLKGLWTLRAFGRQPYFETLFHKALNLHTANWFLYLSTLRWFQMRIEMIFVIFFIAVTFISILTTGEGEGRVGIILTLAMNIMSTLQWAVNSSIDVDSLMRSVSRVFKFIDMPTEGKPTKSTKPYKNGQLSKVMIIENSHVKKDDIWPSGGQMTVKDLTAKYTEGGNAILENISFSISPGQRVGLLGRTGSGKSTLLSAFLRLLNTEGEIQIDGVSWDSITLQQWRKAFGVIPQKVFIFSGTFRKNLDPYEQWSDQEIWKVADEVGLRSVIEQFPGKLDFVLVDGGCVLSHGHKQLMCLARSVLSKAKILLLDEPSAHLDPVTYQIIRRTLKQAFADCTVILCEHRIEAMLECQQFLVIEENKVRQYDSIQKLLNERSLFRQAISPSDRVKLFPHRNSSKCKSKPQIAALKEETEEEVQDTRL
OATP1B3, sequence (Q9NPD5 whole entry): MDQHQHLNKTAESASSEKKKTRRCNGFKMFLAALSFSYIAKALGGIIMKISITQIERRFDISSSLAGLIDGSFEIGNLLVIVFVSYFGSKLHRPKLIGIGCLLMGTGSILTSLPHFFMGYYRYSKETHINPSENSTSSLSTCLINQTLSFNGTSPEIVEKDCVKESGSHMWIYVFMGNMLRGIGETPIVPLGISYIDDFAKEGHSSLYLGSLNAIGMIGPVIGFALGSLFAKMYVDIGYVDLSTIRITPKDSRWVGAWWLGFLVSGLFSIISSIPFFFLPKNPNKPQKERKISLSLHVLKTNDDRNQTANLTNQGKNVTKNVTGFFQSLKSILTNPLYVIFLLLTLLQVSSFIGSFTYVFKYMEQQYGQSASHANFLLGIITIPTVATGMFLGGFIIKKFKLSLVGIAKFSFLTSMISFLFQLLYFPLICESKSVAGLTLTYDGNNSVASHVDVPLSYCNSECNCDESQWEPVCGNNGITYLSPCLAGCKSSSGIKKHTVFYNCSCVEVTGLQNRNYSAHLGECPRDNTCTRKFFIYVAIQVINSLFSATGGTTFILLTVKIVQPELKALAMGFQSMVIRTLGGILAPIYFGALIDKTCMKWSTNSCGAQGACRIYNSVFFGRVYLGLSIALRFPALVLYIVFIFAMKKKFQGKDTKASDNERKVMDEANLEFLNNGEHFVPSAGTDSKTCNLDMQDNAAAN
UGT2B7, sequence (P16662 24-529): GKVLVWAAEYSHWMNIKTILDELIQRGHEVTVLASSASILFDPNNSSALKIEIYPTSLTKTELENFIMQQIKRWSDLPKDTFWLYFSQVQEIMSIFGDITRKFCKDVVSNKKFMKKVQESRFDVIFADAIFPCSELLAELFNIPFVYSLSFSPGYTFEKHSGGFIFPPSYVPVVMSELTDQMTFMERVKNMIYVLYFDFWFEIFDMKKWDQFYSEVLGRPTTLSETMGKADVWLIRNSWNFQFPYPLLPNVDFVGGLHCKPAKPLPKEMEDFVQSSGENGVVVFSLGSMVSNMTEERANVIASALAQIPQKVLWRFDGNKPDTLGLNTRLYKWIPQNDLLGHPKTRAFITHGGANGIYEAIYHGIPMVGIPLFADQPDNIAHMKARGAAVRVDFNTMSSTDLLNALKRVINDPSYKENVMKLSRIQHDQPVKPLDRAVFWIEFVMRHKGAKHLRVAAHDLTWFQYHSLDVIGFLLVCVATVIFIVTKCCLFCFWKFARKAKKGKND

Compound: COc1nc(C(=O)NC[C@](C)(O)C(F)(F)F)c(N)cc1C(F)(F)F (single isomer, unassigned) [Example 5]
- patients colonized, n (%) ([1]; Baseline): 26 (57.8) n (%)
- bacterial colonization, percent of patients ([1]; Baseline, sputum analysis set): 58%
- patients colonized, n (%) ([1]; D14): 23 (53.5) n (%)
- patients with a positive culture, n (%) ([1]; D14): 19 (76.0) n (%)
- patients colonized, n (%) ([1]; D29): 23 (54.8) n (%)
- patients with a positive culture, n (%) ([1]; D29): 18 (75.0) n (%)
- percent of patients who cleared colonization ([1]; Day 29, placebo 15%): 25%
- percent of patients colonized ([1]; Day 29, sputum analysis set, placebo 70%): 55%
- patients colonized, n (%) ([1]; EOS): 17 (40.5) n (%)
- patients with a positive culture, n (%) ([1]; EOS): 14 (58.3) n (%)
- percent of patients who cleared colonization ([1]; EOS, placebo 23%): 42%
- percent of patients colonized ([1]; EOS, sputum analysis set, placebo 74%): 41%
- inhibition of OATP1B3 (OATP1B3): Weak in vitro inhibition
- effect on CYP3A4/5 (CYP3A4/5): time dependent inhibitor and inducer
- patients colonized, n (%) [2]: 1 (2.2) n (%)
- inhibition of OAT1/3 (OAT1/3): Weak in vitro inhibition
- inhibition of UGT2B7 (UGT2B7): Weak in vitro inhibition
- LCI, pre-bronchodilator FEV1 and post-bronchodilator FEV1, mean change from baseline (COPD patients; Day 14, COPD patients): evidence of improvement
- pre- and post-bronchodilator FVC, IC, % FEF25-75 compared to placebo (COPD patients; Day 29, 300 mg bid 28 days, COPD patients): supportive evidence of improvement
- estimated difference (Compound A - placebo) in mean change from baseline post-bronchodilator FEV1 (COPD patients; Day 29, 300 mg bid 28 days, COPD, 90% CI −0.02, 0.14, p-value=0.100): 0.06 L
- posterior difference (Compound A - placebo) in mean change from baseline pre-bronchodilator FEV1 (COPD patients; Day 29, 300 mg bid 28 days, COPD, 90% CrI −0.03, 0.13, 84% probability better than placebo): 0.05 L
- posterior difference (Compound A - placebo) in mean change from baseline LCI (COPD patients; Day 29, 300 mg bid 28 days, COPD, 90% CrI −0.24, 0.79, 19% probability better than placebo): 0.28
- efficacy results for FEV1, sweat chloride, fibrinogen, spirometry and lung volume measurements (COPD patients; EOS, 28 days after the last dose, COPD patients): returned to baseline
- lung function (FEV1) (COPD patients; patients with COPD, four weeks of treatment, listed as Compound A): significant improvement; also recorded: statistically important improvement
- AUC(0-t) (in vivo; NOAEL exposure, AUC0-24 h (exposure threshold), chronic monkey toxicology study): 91.7 µg·h/mL
- AUC(0-t) (in vivo; upper range of the individual animal (monkey) exposures, AUC0-24 h): 159 µg·h/mL
- patients colonized, n (%) (Haemophilus influenzae; Baseline): 25 (55.6) n (%)
- patients colonized, n (%) (Haemophilus influenzae; D14): 20 (46.5) n (%)
- patients colonized, n (%) (Haemophilus influenzae; D29): 22 (52.4) n (%)
- patients colonized, n (%) (Haemophilus influenzae; EOS): 16 (38.1) n (%)
- lung function (FEV1) (patients with CF): significant improvement; also recorded: statistically important improvement
- EC50 (wild type CTFR channel): 72 nM
